Results reported in ChEMBL document CHEMBL1150515, “Synthesis and structure-activity relationships of novel THF 1-methylcarbapenems II” (1997).
≈ marks a conversion by molar mass, not a printed value.

test system: Acinetobacter calcoaceticus; assay: Antimicrobial activity against Acinetobacter calcoaceticus (GC 756); type: functional; settings: not given

SMILES	MIC [µg/mL]
C[C@@H](O)[C@H]1C(=O)N2C(C(=O)[O-])=C(SC3COC(C[N+](C)(C)C)C3)[C@H](C)[C@H]12 (stereo partly drawn)	16 (≈ 41.6 µM)
CNCC(=O)NCC1CC(SC2=C(C(=O)[O-])N3C(=O)[C@H]([C@@H](C)O)[C@H]3[C@H]2C)CO1.[Na+] (stereo partly drawn)	2
C[C@H](N)C(=O)N[C@@H](C)C(=O)NC[C@H]1OCC[C@H]1SC1=C(C(=O)[O-])N2C(=O)[C@H]([C@@H](C)O)[C@H]2[C@H]1C.[Na+]	32
CC(=O)NCC1CC(SC2=C(C(=O)[O-])N3C(=O)[C@H]([C@@H](C)O)[C@H]3[C@H]2C)CO1.[Na+] (stereo partly drawn)	8

test system: not listed separately; assay: Antimicrobial activity against Citrobacter freundii (GC 2211); type: functional; settings: not given

SMILES	MIC [µg/mL]
C[C@@H](O)[C@H]1C(=O)N2C(C(=O)[O-])=C(SC3COC(C[N+](C)(C)C)C3)[C@H](C)[C@H]12 (stereo partly drawn)	1 (≈ 2.6 µM)
CNCC(=O)NCC1CC(SC2=C(C(=O)[O-])N3C(=O)[C@H]([C@@H](C)O)[C@H]3[C@H]2C)CO1.[Na+] (stereo partly drawn)	0.25
C[C@H](N)C(=O)N[C@@H](C)C(=O)NC[C@H]1OCC[C@H]1SC1=C(C(=O)[O-])N2C(=O)[C@H]([C@@H](C)O)[C@H]2[C@H]1C.[Na+]	8
CC(=O)NCC1CC(SC2=C(C(=O)[O-])N3C(=O)[C@H]([C@@H](C)O)[C@H]3[C@H]2C)CO1.[Na+] (stereo partly drawn)	2

target: T1, Dipeptidase 1 (Sus scrofa) (UniProt P22412); assay: Relative hydrolysis to that of imipenem was determined by hog renal dehydropeptidase; settings: not given
T1 sequence (whole entry): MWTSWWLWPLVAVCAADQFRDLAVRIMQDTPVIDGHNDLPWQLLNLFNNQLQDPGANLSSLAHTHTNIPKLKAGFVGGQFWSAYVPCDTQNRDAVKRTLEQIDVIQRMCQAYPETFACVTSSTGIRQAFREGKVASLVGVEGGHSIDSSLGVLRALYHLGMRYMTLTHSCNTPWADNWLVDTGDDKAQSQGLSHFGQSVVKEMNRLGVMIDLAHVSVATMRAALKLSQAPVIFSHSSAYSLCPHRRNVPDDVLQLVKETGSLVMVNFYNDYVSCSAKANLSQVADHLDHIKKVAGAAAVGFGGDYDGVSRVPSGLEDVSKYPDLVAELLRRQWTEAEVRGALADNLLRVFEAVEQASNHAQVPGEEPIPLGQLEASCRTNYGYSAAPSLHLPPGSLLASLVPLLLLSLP

SMILES	Relative hydrolysis
C[C@H](N)C(=O)N[C@@H](C)C(=O)NC[C@H]1OCC[C@H]1SC1=C(C(=O)[O-])N2C(=O)[C@H]([C@@H](C)O)[C@H]2[C@H]1C.[Na+]	13
CC(=O)NCC1CC(SC2=C(C(=O)[O-])N3C(=O)[C@H]([C@@H](C)O)[C@H]3[C@H]2C)CO1.[Na+] (stereo partly drawn)	4

test system: not listed separately; assay: Antimicrobial activity against Enterococcus faecium (GC 1182); type: functional; settings: not given

SMILES	MIC [µg/mL]
C[C@@H](O)[C@H]1C(=O)N2C(C(=O)[O-])=C(SC3COC(C[N+](C)(C)C)C3)[C@H](C)[C@H]12 (stereo partly drawn)	> 128
CNCC(=O)NCC1CC(SC2=C(C(=O)[O-])N3C(=O)[C@H]([C@@H](C)O)[C@H]3[C@H]2C)CO1.[Na+] (stereo partly drawn)	> 128
C[C@H](N)C(=O)N[C@@H](C)C(=O)NC[C@H]1OCC[C@H]1SC1=C(C(=O)[O-])N2C(=O)[C@H]([C@@H](C)O)[C@H]2[C@H]1C.[Na+]	> 128
CC(=O)NCC1CC(SC2=C(C(=O)[O-])N3C(=O)[C@H]([C@@H](C)O)[C@H]3[C@H]2C)CO1.[Na+] (stereo partly drawn)	> 128

test system: not listed separately; assay: Antimicrobial activity against Enterobacter cloacae (GC 2209); type: functional; settings: not given

SMILES	MIC [µg/mL]
C[C@@H](O)[C@H]1C(=O)N2C(C(=O)[O-])=C(SC3COC(C[N+](C)(C)C)C3)[C@H](C)[C@H]12 (stereo partly drawn)	0.25 (≈ 0.65 µM)
CNCC(=O)NCC1CC(SC2=C(C(=O)[O-])N3C(=O)[C@H]([C@@H](C)O)[C@H]3[C@H]2C)CO1.[Na+] (stereo partly drawn)	≤ 0.06
C[C@H](N)C(=O)N[C@@H](C)C(=O)NC[C@H]1OCC[C@H]1SC1=C(C(=O)[O-])N2C(=O)[C@H]([C@@H](C)O)[C@H]2[C@H]1C.[Na+]	2
CC(=O)NCC1CC(SC2=C(C(=O)[O-])N3C(=O)[C@H]([C@@H](C)O)[C@H]3[C@H]2C)CO1.[Na+] (stereo partly drawn)	0.5

test system: not listed separately; assay: Antimicrobial activity against Enterococcus faecalis (GC 842); type: functional; settings: not given

SMILES	MIC [µg/mL]
C[C@@H](O)[C@H]1C(=O)N2C(C(=O)[O-])=C(SC3COC(C[N+](C)(C)C)C3)[C@H](C)[C@H]12 (stereo partly drawn)	8 (≈ 20.8 µM)
CNCC(=O)NCC1CC(SC2=C(C(=O)[O-])N3C(=O)[C@H]([C@@H](C)O)[C@H]3[C@H]2C)CO1.[Na+] (stereo partly drawn)	4
C[C@H](N)C(=O)N[C@@H](C)C(=O)NC[C@H]1OCC[C@H]1SC1=C(C(=O)[O-])N2C(=O)[C@H]([C@@H](C)O)[C@H]2[C@H]1C.[Na+]	4
CC(=O)NCC1CC(SC2=C(C(=O)[O-])N3C(=O)[C@H]([C@@H](C)O)[C@H]3[C@H]2C)CO1.[Na+] (stereo partly drawn)	8

test system: Escherichia coli; assay: Antimicrobial activity against Escherichia coli (ATCC 25922); type: functional; settings: not given

SMILES	MIC [µg/mL]
C[C@@H](O)[C@H]1C(=O)N2C(C(=O)[O-])=C(SC3COC(C[N+](C)(C)C)C3)[C@H](C)[C@H]12 (stereo partly drawn)	0.25 (≈ 0.65 µM)
CNCC(=O)NCC1CC(SC2=C(C(=O)[O-])N3C(=O)[C@H]([C@@H](C)O)[C@H]3[C@H]2C)CO1.[Na+] (stereo partly drawn)	≤ 0.06
C[C@H](N)C(=O)N[C@@H](C)C(=O)NC[C@H]1OCC[C@H]1SC1=C(C(=O)[O-])N2C(=O)[C@H]([C@@H](C)O)[C@H]2[C@H]1C.[Na+]	≤ 0.06
CC(=O)NCC1CC(SC2=C(C(=O)[O-])N3C(=O)[C@H]([C@@H](C)O)[C@H]3[C@H]2C)CO1.[Na+] (stereo partly drawn)	≤ 0.06

test system: Escherichia coli; assay: Antimicrobial activity against Escherichia coli (GC 1792); type: functional; settings: not given

SMILES	MIC [µg/mL]
C[C@@H](O)[C@H]1C(=O)N2C(C(=O)[O-])=C(SC3COC(C[N+](C)(C)C)C3)[C@H](C)[C@H]12 (stereo partly drawn)	0.25 (≈ 0.65 µM)
CNCC(=O)NCC1CC(SC2=C(C(=O)[O-])N3C(=O)[C@H]([C@@H](C)O)[C@H]3[C@H]2C)CO1.[Na+] (stereo partly drawn)	≤ 0.06
C[C@H](N)C(=O)N[C@@H](C)C(=O)NC[C@H]1OCC[C@H]1SC1=C(C(=O)[O-])N2C(=O)[C@H]([C@@H](C)O)[C@H]2[C@H]1C.[Na+]	≤ 0.06
CC(=O)NCC1CC(SC2=C(C(=O)[O-])N3C(=O)[C@H]([C@@H](C)O)[C@H]3[C@H]2C)CO1.[Na+] (stereo partly drawn)	0.12

test system: Escherichia coli; assay: Antimicrobial activity against Escherichia coli (GC 2205); type: functional; settings: not given

SMILES	MIC [µg/mL]
C[C@@H](O)[C@H]1C(=O)N2C(C(=O)[O-])=C(SC3COC(C[N+](C)(C)C)C3)[C@H](C)[C@H]12 (stereo partly drawn)	0.25 (≈ 0.65 µM)
CNCC(=O)NCC1CC(SC2=C(C(=O)[O-])N3C(=O)[C@H]([C@@H](C)O)[C@H]3[C@H]2C)CO1.[Na+] (stereo partly drawn)	≤ 0.06
C[C@H](N)C(=O)N[C@@H](C)C(=O)NC[C@H]1OCC[C@H]1SC1=C(C(=O)[O-])N2C(=O)[C@H]([C@@H](C)O)[C@H]2[C@H]1C.[Na+]	0.12
CC(=O)NCC1CC(SC2=C(C(=O)[O-])N3C(=O)[C@H]([C@@H](C)O)[C@H]3[C@H]2C)CO1.[Na+] (stereo partly drawn)	≤ 0.06

test system: not listed separately; assay: Antimicrobial activity against Morganella morganii (GC 2213); type: functional; settings: not given

SMILES	MIC [µg/mL]
C[C@@H](O)[C@H]1C(=O)N2C(C(=O)[O-])=C(SC3COC(C[N+](C)(C)C)C3)[C@H](C)[C@H]12 (stereo partly drawn)	4 (≈ 10.4 µM)
CNCC(=O)NCC1CC(SC2=C(C(=O)[O-])N3C(=O)[C@H]([C@@H](C)O)[C@H]3[C@H]2C)CO1.[Na+] (stereo partly drawn)	0.25
C[C@H](N)C(=O)N[C@@H](C)C(=O)NC[C@H]1OCC[C@H]1SC1=C(C(=O)[O-])N2C(=O)[C@H]([C@@H](C)O)[C@H]2[C@H]1C.[Na+]	2
CC(=O)NCC1CC(SC2=C(C(=O)[O-])N3C(=O)[C@H]([C@@H](C)O)[C@H]3[C@H]2C)CO1.[Na+] (stereo partly drawn)	0.5

test system: Pseudomonas aeruginosa; assay: Antimicrobial activity against Pseudomonas aeruginosa (ATCC 27853); type: functional; settings: not given

SMILES	MIC [µg/mL]
C[C@@H](O)[C@H]1C(=O)N2C(C(=O)[O-])=C(SC3COC(C[N+](C)(C)C)C3)[C@H](C)[C@H]12 (stereo partly drawn)	32 (≈ 83.2 µM)
CNCC(=O)NCC1CC(SC2=C(C(=O)[O-])N3C(=O)[C@H]([C@@H](C)O)[C@H]3[C@H]2C)CO1.[Na+] (stereo partly drawn)	32
C[C@H](N)C(=O)N[C@@H](C)C(=O)NC[C@H]1OCC[C@H]1SC1=C(C(=O)[O-])N2C(=O)[C@H]([C@@H](C)O)[C@H]2[C@H]1C.[Na+]	64
CC(=O)NCC1CC(SC2=C(C(=O)[O-])N3C(=O)[C@H]([C@@H](C)O)[C@H]3[C@H]2C)CO1.[Na+] (stereo partly drawn)	64

test system: Pseudomonas aeruginosa; assay: Antimicrobial activity against Pseudomonas aeruginosa (GC 1544 OprD); type: functional; settings: not given

SMILES	MIC [µg/mL]
C[C@@H](O)[C@H]1C(=O)N2C(C(=O)[O-])=C(SC3COC(C[N+](C)(C)C)C3)[C@H](C)[C@H]12 (stereo partly drawn)	64 (≈ 166 µM)
CNCC(=O)NCC1CC(SC2=C(C(=O)[O-])N3C(=O)[C@H]([C@@H](C)O)[C@H]3[C@H]2C)CO1.[Na+] (stereo partly drawn)	32
C[C@H](N)C(=O)N[C@@H](C)C(=O)NC[C@H]1OCC[C@H]1SC1=C(C(=O)[O-])N2C(=O)[C@H]([C@@H](C)O)[C@H]2[C@H]1C.[Na+]	> 128
CC(=O)NCC1CC(SC2=C(C(=O)[O-])N3C(=O)[C@H]([C@@H](C)O)[C@H]3[C@H]2C)CO1.[Na+] (stereo partly drawn)	128

test system: Staphylococcus aureus; assay: Antimicrobial activity against Staphylococcus aureus (ATCC 29213); type: functional; settings: not given

SMILES	MIC [µg/mL]
C[C@@H](O)[C@H]1C(=O)N2C(C(=O)[O-])=C(SC3COC(C[N+](C)(C)C)C3)[C@H](C)[C@H]12 (stereo partly drawn)	0.12 (≈ 0.312 µM)
CNCC(=O)NCC1CC(SC2=C(C(=O)[O-])N3C(=O)[C@H]([C@@H](C)O)[C@H]3[C@H]2C)CO1.[Na+] (stereo partly drawn)	≤ 0.06
C[C@H](N)C(=O)N[C@@H](C)C(=O)NC[C@H]1OCC[C@H]1SC1=C(C(=O)[O-])N2C(=O)[C@H]([C@@H](C)O)[C@H]2[C@H]1C.[Na+]	1
CC(=O)NCC1CC(SC2=C(C(=O)[O-])N3C(=O)[C@H]([C@@H](C)O)[C@H]3[C@H]2C)CO1.[Na+] (stereo partly drawn)	0.12

test system: Staphylococcus aureus; assay: Antimicrobial activity against methicillin - resistant Staphylococcus aureus (GC 2220); type: functional; settings: not given

SMILES	MIC [µg/mL]
C[C@@H](O)[C@H]1C(=O)N2C(C(=O)[O-])=C(SC3COC(C[N+](C)(C)C)C3)[C@H](C)[C@H]12 (stereo partly drawn)	16 (≈ 41.6 µM)
CNCC(=O)NCC1CC(SC2=C(C(=O)[O-])N3C(=O)[C@H]([C@@H](C)O)[C@H]3[C@H]2C)CO1.[Na+] (stereo partly drawn)	16
C[C@H](N)C(=O)N[C@@H](C)C(=O)NC[C@H]1OCC[C@H]1SC1=C(C(=O)[O-])N2C(=O)[C@H]([C@@H](C)O)[C@H]2[C@H]1C.[Na+]	64
CC(=O)NCC1CC(SC2=C(C(=O)[O-])N3C(=O)[C@H]([C@@H](C)O)[C@H]3[C@H]2C)CO1.[Na+] (stereo partly drawn)	16

test system: not listed separately; assay: Antimicrobial activity against Xanthomonas maltophilia (GC 562); type: functional; settings: Stenotrophomonas maltophilia

SMILES	MIC [µg/mL]
C[C@@H](O)[C@H]1C(=O)N2C(C(=O)[O-])=C(SC3COC(C[N+](C)(C)C)C3)[C@H](C)[C@H]12 (stereo partly drawn)	> 128
CNCC(=O)NCC1CC(SC2=C(C(=O)[O-])N3C(=O)[C@H]([C@@H](C)O)[C@H]3[C@H]2C)CO1.[Na+] (stereo partly drawn)	> 128
C[C@H](N)C(=O)N[C@@H](C)C(=O)NC[C@H]1OCC[C@H]1SC1=C(C(=O)[O-])N2C(=O)[C@H]([C@@H](C)O)[C@H]2[C@H]1C.[Na+]	> 128
CC(=O)NCC1CC(SC2=C(C(=O)[O-])N3C(=O)[C@H]([C@@H](C)O)[C@H]3[C@H]2C)CO1.[Na+] (stereo partly drawn)	> 128
